# From patent US11572398B2, “GLP-1 derivatives and uses thereof” (Novo Nordisk A/S, priority 2014, dated 2023)
# Like-named read-outs stand apart in the source and are kept apart here. Non-standard residues stand in square brackets, D forms with d. Residues, ends and D or L forms follow the SMILES beside them. Groups on a side chain read outwards from the residue. *: point of attachment. X2 = O=C(O)CCCCCCCCCCCCCCCCCCC(=O)NC[C@H]1CC[C@H](C(=O)N[C@@H](CCC(=O)NCCCN(CCCNC(=O)CC[C@H](NC(=O)[C@H]2CC[C@H](CNC(=O)CCCCCCCCCCCCCCCCCCC(=O)O)CC2)C(=O)O)CC(=O)*)C(=O)O)CC1; AEEA = NCCOCCOCC(=O)O; Aib = CC(C)(N)C(=O)O
# Assays:
# [1] = biological target: T1, human GLP-1 receptor (Homo sapiens, UniProt P43220); experiment: GLP-1 receptor binding: competitive binding assay (125I-GLP-1, SPA) on isolated membranes at low and high HSA
# T1 construct: expressed in transfected cells; host or cells: BHK cells (parent line BHKTS13), clone FCW467-12A; membrane preparation
# Description: The purpose of this example is to test the receptor binding of the GLP-1 derivatives in vitro. The receptor binding is a measure of affinity of a derivative for the human GLP-1 receptor.
# Each derivative is added in a series of concentrations to isolated membranes containing the human GLP-1 receptor and displacement of the labelled ligand is monitored. The receptor binding is reported as the concentration at which half of the labelled ligand is displaced from the receptor, the IC50 value.
# Buffer 1 consisted of 20 mM Na-HEPES plus 10 mM EDTA and pH was adjusted to 7.4. Buffer 2 consisted of 20 mM Na-HEPES plus 0.1 mM EDTA and pH was adjusted to 7.4. Assay buffer consisted of 50 mM HEPES supplemented with 5 mM EGTA, 5 mM MgCl2, 0.005% Tween 20 and pH was adjusted to 7.4. An 8% albumin stock consisted of HSA dissolved at 8% (w/v) in assay buffer. An 0.02% albumin stock consisted of HSA dissolved at 0.02% (w/v) in assay buffer.
# The cells express the human GLP-1 receptor.
# The cells were grown at 5% CO2 in DMEM, 10% fetal calf serum, 1% Pen/Strep (Penicillin/Streptomycin) and 1.0 mg/ml of the selection marker G418. To make a membrane preparation the cells were grown to approximately 80% confluence. The cells were washed twice in phosphate-buffered saline and harvested. The cells were pelleted using a brief centrifugation and the cell pellet was kept on ice. […] The homogenate was centrifuged for 15 minutes. The pellet was re-suspended (homogenised) in 10 ml buffer 2 and centrifuged. This step was repeated once more. The resulting pellet was re-suspended in buffer 2 and the protein concentration was determined. The membranes were aliquoted and stored at minus 80° C.
# 1. […] Assay continued with step 3.
# 2. For the receptor binding assay in the presence of high HSA (2%) 50 μl of the 8% albumin stock was added to each well of an assay plate. Assay continued with step 3.
# 4. Cell membrane aliquots were thawed and diluted to their working concentration. Fifty μl were added to each well in the assay plate.
# 5. WGA SPA beads were suspended in assay buffer at 20 mg/ml. The suspension was diluted to 10 mg/ml in assay buffer just prior to addition to the assay plate. Fifty μl were added to each well in the assay plate.
# 6. […] A 25 μl aliquot was reserved for measuring total counts/well.
# 7. The assay plate was incubated for 2 h at 30° C.
# 8. The assay plate was centrifuged for 10 min.
# 9. The assay plate was read in a Packard TopCount NXT instrument.
# The data from the TopCount instrument were transferred to GraphPad Prism software. Individual replicates were analysed using non-linear regression. IC50 values were calculated by the software and reported in nM. The reported values are averages of all of the measured values for each compound.
# [2] = biological target: T1, human GLP-1 receptor; experiment: In vitro potency: CRE luciferase reporter gene assay in BHK cells expressing the human GLP-1 receptor; assay type: cell-based; settings: whole cell reporter gene assay, BHK cells, human GLP-1 receptor; average of at least two replicates; read-out: EC50
# Description: The purpose of this example is to test the activity, or potency, of the GLP-1 derivatives in vitro. The in vitro potency is the measure of human GLP-1 receptor activation in a whole cell assay.
# In vitro potency was determined by measuring the response of the human GLP-1 receptor in a reporter gene assay. The assay was performed in a stably transfected BHK cell line that expresses the human GLP-1 receptor and contains the DNA for the cAMP response element (CRE) coupled to a promoter and the gene for firefly luciferase (CRE luciferase). When the human GLP-1 receptor is activated it results in the production of cAMP, which in turn results in the luciferase protein being expressed. When assay incubation is completed the luciferase substrate (luciferin) is added and the enzyme converts luciferin to oxyluciferin to produce bioluminescence. The luminescence is measured as the readout for the assay.
# The cells were cultured at 5% CO2 in cell culture medium. They were aliquoted and stored in liquid nitrogen. Before each assay an aliquot was taken up and washed twice in PBS before being suspended at the desired concentration in the assay specific buffer.
# The assay buffer consisted of 2% ovalbumin and 0.2% Pluronic F-68 in assay medium.
# 1) Cell stocks were thawed in a 37° C. water bath.
# 2) Cells were washed three times in PBS.
# 3) Cells were counted and adjusted to 5×10^3 cells/50 μl (1×10^5 cells/ml) in assay medium. A 50 μl aliquot of cells was transferred to each well in the assay plate.
# 4) Stocks of the test compounds and reference compounds were diluted to a concentration of 0.2 μM in assay buffer. […] 8) A 100 μl aliquot of steadylite plus reagent was added to each well of the assay plate. 9) Each assay plate was covered with aluminum foil to protect it from light and shaken for 30 min at room temperature. 10) Each assay plate was read in a BioTek Synergy 2 Multi-Mode Reader. Calculations and Results
# The data from the BioTek Synergy 2 Multi-Mode Reader were transferred to GraphPad Prism software. The software performs a non-linear regression (log(agonist) vs response (three parameters)).
# A minimum of two replicates were measured for each sample. The reported EC50 values are averages of all of the measured values for each compound.
# [3] = Low HSA IC50, low HSA (max. 0.001% final assay concentration)
# [4] = high HSA (2.0% final assay concentration), read-out: High HSA IC50
# T1 sequence (P43220 24-463): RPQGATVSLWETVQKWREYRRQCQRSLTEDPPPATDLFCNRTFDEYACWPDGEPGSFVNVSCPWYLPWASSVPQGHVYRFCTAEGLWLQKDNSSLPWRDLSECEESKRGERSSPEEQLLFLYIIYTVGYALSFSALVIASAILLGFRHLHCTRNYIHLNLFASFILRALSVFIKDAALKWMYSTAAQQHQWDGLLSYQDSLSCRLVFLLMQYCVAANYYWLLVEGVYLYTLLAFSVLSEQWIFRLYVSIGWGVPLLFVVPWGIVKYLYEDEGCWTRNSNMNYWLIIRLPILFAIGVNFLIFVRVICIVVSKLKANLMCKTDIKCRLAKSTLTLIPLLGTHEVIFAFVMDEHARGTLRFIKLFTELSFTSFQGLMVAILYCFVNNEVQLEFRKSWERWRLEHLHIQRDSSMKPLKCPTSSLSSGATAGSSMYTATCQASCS
Structure (SMILES),"IC50 [1, 3] [nM]","IC50 [1, 4] [nM]",EC50 [2] [nM]
"CC[C@H](C)[C@H](NC(=O)[C@H](Cc1ccccc1)NC(=O)[C@H](CCC(=O)O)NC(=O)[C@H](CCCNC(=N)N)NC(=O)[C@H](C)NC(=O)[C@H](C)NC(=O)[C@H](CCC(N)=O)NC(=O)[C@H](CCC(=O)O)NC(=O)[C@H](CCC(=O)O)NC(=O)[C@H](CC(C)C)NC(=O)[C@H](Cc1ccc(O)cc1)NC(=O)[C@H](CO)NC(=O)[C@H](CO)NC(=O)[C@@H](NC(=O)[C@H](CC(=O)O)NC(=O)[C@H](CO)NC(=O)[C@@H](NC(=O)[C@H](Cc1ccccc1)NC(=O)[C@@H](NC(=O)CNC(=O)[C@H](CCC(=O)O)NC(=O)C(C)(C)NC(=O)[C@@H](N)Cc1c[nH]cn1)[C@@H](C)O)[C@@H](C)O)C(C)C)C(=O)N[C@@H](C)C(=O)N[C@@H](Cc1c[nH]c2ccccc12)C(=O)N[C@@H](CC(C)C)C(=O)N[C@H](C(=O)N[C@@H](CCCNC(=N)N)C(=O)NCC(=O)N[C@@H](CCCNC(=N)N)C(=O)N[C@@H](CCCCNC(=O)CN(CCCNC(=O)COCCOCCNC(=O)COCCOCCNC(=O)COCCOCCNC(=O)COCCOCCNC(=O)CC[C@H](NC(=O)[C@H]1CC[C@H](CNC(=O)CCCNC(=O)CCCCCCCCCCCCCCCS(=O)(=O)O)CC1)C(=O)O)CCCNC(=O)COCCOCCNC(=O)COCCOCCNC(=O)COCCOCCNC(=O)COCCOCCNC(=O)CC[C@H](NC(=O)[C@H]1CC[C@H](CNC(=O)CCCNC(=O)CCCCCCCCCCCCCCCS(=O)(=O)O)CC1)C(=O)O)C(=O)O)C(C)C [Example 19, N{Epsilon-37}-[2-[bis[3-[[2-[2-[2-[[2-[2-[2-[[2-[2-[2-[[2-[2-[2-[[(4S)-4-carboxy-4-[[4-[[4-(16-sulfohexadecanoylamino)butanoylamino]methyl]cyclohexanecarbonyl]amino]butanoyl]amino]ethoxy]ethoxy]acetyl]amino]ethoxy]ethoxy]acetyl]amino]ethoxy]ethoxy]acetyl]amino]ethoxy]ethoxy]acetyl]amino]propyl]amino]acetyl]-[Aib8,Glu22,Arg26,Arg34,Lys37]-GLP-1-(7-37)-peptide]",0.15,42,0.0014
CC[C@H](C)[C@H](NC(=O)[C@H](Cc1ccccc1)NC(=O)[C@H](CCC(=O)O)NC(=O)[C@H](CCCNC(=N)N)NC(=O)[C@H](C)NC(=O)[C@H](C)NC(=O)[C@H](CCC(N)=O)NC(=O)[C@H](CCC(=O)O)NC(=O)[C@H](CCC(=O)O)NC(=O)[C@H](CC(C)C)NC(=O)[C@H](Cc1ccc(O)cc1)NC(=O)[C@H](CO)NC(=O)[C@H](CO)NC(=O)[C@@H](NC(=O)[C@H](CC(=O)O)NC(=O)[C@H](CO)NC(=O)[C@@H](NC(=O)[C@H](Cc1ccccc1)NC(=O)[C@@H](NC(=O)CNC(=O)[C@H](CCC(=O)O)NC(=O)C(C)(C)NC(=O)[C@@H](N)Cc1c[nH]cn1)[C@@H](C)O)[C@@H](C)O)C(C)C)C(=O)N[C@@H](C)C(=O)N[C@@H](Cc1c[nH]c2ccccc12)C(=O)N[C@@H](CC(C)C)C(=O)N[C@H](C(=O)N[C@@H](CCCNC(=N)N)C(=O)NCC(=O)N[C@@H](CCCNC(=N)N)C(=O)N[C@@H](CCCCNC(=O)COCCOCCNC(=O)COCCOCCNC(=O)COCCOCCNC(=O)COCCOCCNC(=O)COCCOCCNC(=O)COCCOCCNC(=O)CN(CCCNC(=O)[C@H](CO)NC(=O)CC[C@H](NC(=O)[C@H]1CC[C@H](CNC(=O)CCCCCCCCCCCCCCCCCCC(=O)O)CC1)C(=O)O)CCCNC(=O)[C@H](CO)NC(=O)CC[C@H](NC(=O)[C@H]1CC[C@H](CNC(=O)CCCCCCCCCCCCCCCCCCC(=O)O)CC1)C(=O)O)C(=O)O)C(C)C [Example 25],0.91,41,0.03
CC[C@H](C)[C@H](NC(=O)[C@H](Cc1ccccc1)NC(=O)[C@H](CCC(=O)O)NC(=O)[C@H](CCCNC(=N)N)NC(=O)[C@H](C)NC(=O)[C@H](C)NC(=O)[C@H](CCC(N)=O)NC(=O)[C@H](CCC(=O)O)NC(=O)[C@H](CCC(=O)O)NC(=O)[C@H](CC(C)C)NC(=O)[C@H](Cc1ccc(O)cc1)NC(=O)[C@H](CO)NC(=O)[C@H](CO)NC(=O)[C@@H](NC(=O)[C@H](CC(=O)O)NC(=O)[C@H](CO)NC(=O)[C@@H](NC(=O)[C@H](Cc1ccccc1)NC(=O)[C@@H](NC(=O)CNC(=O)[C@H](CCC(=O)O)NC(=O)C(C)(C)NC(=O)[C@@H](N)Cc1c[nH]cn1)[C@@H](C)O)[C@@H](C)O)C(C)C)C(=O)N[C@@H](C)C(=O)N[C@@H](Cc1c[nH]c2ccccc12)C(=O)N[C@@H](CC(C)C)C(=O)N[C@H](C(=O)N[C@@H](CCCNC(=N)N)C(=O)NCC(=O)N[C@@H](CCCCNC(=O)COCCOCCNC(=O)COCCOCCNC(=O)COCCOCCNC(=O)COCCOCCNC(=O)COCCOCCNC(=O)COCCOCCNC(=O)CN(CCCNC(=O)CC[C@H](NC(=O)[C@H]1CC[C@H](CNC(=O)CCCCCCCCCCCCCCCCCCC(=O)O)CC1)C(=O)O)CCCNC(=O)CC[C@H](NC(=O)[C@H]1CC[C@H](CNC(=O)CCCCCCCCCCCCCCCCCCC(=O)O)CC1)C(=O)O)C(=O)NCC(=O)O)C(C)C [Example 30] (H-H[Aib]EGTFTSDVSSYLEEQAAREFIAWLVRGK([AEEA-AEEA-AEEA-AEEA-AEEA-AEEA-X2])G-OH; N-terminus and C-terminus assumed),–,4.1,–
